Patent US9180134B2, “Mitochondrial ribosomal proteins as aging regulators” (ECOLE POLYTECHNIQUE FEDERALE DE LAUSANNE (EPEL), priority 2011, dated 2015)

Legend:
[1] = tested on: C. elegans; assay: Worm lifespan analysis; format: in vivo; conditions: antibiotic from eggs to L4 larval stage, heat-killed bacteria; 20° C
Description: Lifespan tests were performed as described (Mouchiroud et al., 2011, Aging Cell 10, 39). Briefly, 60-100 animals were used per conditions and scored every other day. All lifespan experiments were performed at 20° C. […] Treatments with antibiotics (carbenicillin, doxycycline, and chloramphenicol (all Sigma)) were performed with heat-killed bacteria (Wood et al., 2004, Nature 430, 686). Carbenicillin, doxycycline, and chloramphenicol were added at the indicated concentrations. Animals were exposed to antibiotics from eggs to L4 larval stage and then shifted on plates seeded with live OP50 bacteria.

[2] = tested on: mitochondrial unfolded protein response (UPR^mt); assay: UPR^mt GFP reporter worms (hsp-6::GFP); format: in vivo, C. elegans; conditions: Day 1 adults
Description: Treatments with antibiotics (carbenicillin, doxycycline, and chloramphenicol (all Sigma)) were performed with heat-killed bacteria (Wood et al., 2004, Nature 430, 686). Carbenicillin, doxycycline, and chloramphenicol were added at the indicated concentrations. Animals were exposed to antibiotics from eggs to L4 larval stage and then shifted on plates seeded with live OP50 bacteria. GFP expression and quantification were carried out according to the protocol previously described (Durieux et al, 2011, Cell 144, 79). Briefly, GFP was monitored in Day 1 adults. Fluorimetric assays were performed using a Victor X4 multilabel plate reader (Perkin-Elmer Life Science). Eighty roller worms were picked at random (20 worms per well of a black-walled 96-well plate) and each well was read four times and averaged. Each experiment was repeated at least twice. For picture acquisition, animals were mounted on 2% agarose pads in a droplet of 10 mM tetramisole (Sigma) and examined using a Zeiss Axioplan-2 microscope (Carl Zeiss MicroImaging, Thornwood, N.Y., USA) equipped for both DIC and epifluorescence. Images were obtained using a Coolsnap ES^2 camera.

[3] = tested on: C. elegans; assay: Worm respiration assay (Seahorse XF24); format: in vivo; conditions: worms treated with antibiotic
Description: Treatments with antibiotics (carbenicillin, doxycycline, and chloramphenicol (all Sigma)) were performed with heat-killed bacteria (Wood et al., 2004, Nature 430, 686). Carbenicillin, doxycycline, and chloramphenicol were added at the indicated concentrations. Animals were exposed to antibiotics from eggs to L4 larval stage and then shifted on plates seeded with live OP50 bacteria. Oxygen consumption was measured using the Seahorse XF24 equipment (Seahorse Bioscience Inc., North Billerica, Mass.). Typically, 200 animals per conditions were recovered from NGM plates with M9 medium, washed three times in 2 mL M9 to eliminate residual bacteria, and resuspended in 500 μL M9 medium. Worms were transferred in 24-well standard Seahorse plates (#100777-004) (50 worms per well) and oxygen consumption was measured 6 times. Respiration rates were normalized to the number of worms in each individual well.

[4] = tested on: Hepa1-6 mouse liver cells; assay: Oxygen consumption in Hepa1-6 cells (Seahorse XF24); format: cell-based; conditions: 48 h incubation, normalized for protein content
Description: (§1) Hepa1-6 mouse liver cells were maintained in DMEM medium containing 4.5 g/l glucose and 10% fetal calf serum. Hepa1-6 cells were incubated for 48 h with doxycycline or chloramphenicol (both Sigma) in medium containing 1 g/l glucose, with 1% (v/v) oleate-BSA (Sigma) supplementation, and without any other antibiotics. Oxygen consumption in Hepa1-6 cells was measured using the Seahorse XF24 equipment (Watanabe et al., 2006, Nature 439, 484), and normalized for protein content. ATP content was measured using CellTiter-Glo (Promega), according to the manufacturer's protocol.

[5] = tested on: C57BL/6N mice; assay: Mouse indirect calorimetry (CLAMS); format: in vivo; conditions: C57BL/6 mice, chow containing doxycycline for 10 days, data not shown
Description: Wild type C57BL/6N mice were treated for 10 days with 50 mpkd doxycycline (Sigma) in food admix. Oxygen consumption (VO2), respiratory exchange ratios (RER), and activity were monitored by indirect calorimetry using the comprehensive laboratory animal monitoring system (CLAMS) (Columbus Instruments, Columbus, Ohio, USA).

[6] = tested on: Hepa1-6 mouse liver cells; assay: ATP content (CellTiter-Glo) in Hepa1-6 cells; format: cell-based; conditions: data not shown
Description: as §1

Row | Structure (SMILES) | lifespan of C. elegans [1] | UPR^mt induction in C. elegans [2] | oxygen consumption (respiration) of C. elegans [3] | respiration (oxygen consumption) in Hepa1-6 cells [4] | activity [5] | body weight [5] | food intake [5] | cell viability as measured by ATP levels [6]
1 | O=C(N[C@H](CO)[C@H](O)c1ccc([N+](=O)[O-])cc1)C(Cl)Cl [chloramphenicol] | extended lifespan | induced UPR^mt | decreased respiration | decreased respiration |  |  |  | 
2 | C[C@H]1c2cccc(O)c2C(=O)C2=C(O)[C@]3(O)C(=O)C(C(N)=O)=C(O)[C@@H](N(C)C)[C@@H]3[C@@H](O)[C@@H]21 [doxycycline] |  |  |  |  | without changes | without changes | without changes | without affecting cell viability
